Source: article PMC1838960, “Inhibition of Hippocampal Matrix Metalloproteinase-3 and -9 Disrupts Spatial Memory” (Neural Plasticity, 2006)

Columns and labels:
HSF stromelysin = conditions: ref Odake et al. [37], read-out: IC50 against stromelysin; cited from earlier work
Source text: (§1) There are at least two possible explanations for these differences. First, Odake and colleagues used HSF stromelysin and HG gelatinase as substrates, while we used MMP-3 (stromelyisin-1) and MMP-9 (gelatinase B). Secon ...

HG gelatinase = conditions: ref Odake et al. [37], read-out: IC50 against gelatinase; cited from earlier work
Source text: as §1

[1] = icv, 7.2 mM stock, 10 μL (35 μg) twice, cumulative 70 μg; ref [27]; cited from earlier work
Source text: (§2) The potential contribution of ECM remodeling to learning and memory has only recently been addressed. Our laboratory has focused on hippocampal mediated spatial memory and measured elevations in hippocampal MMP-3 and MMP-9 during acquisition of the Morris water maze task.

[2] = system: late-phase of long-term potentiation (LTP); conditions: ref [27]; cited from earlier work
Source text: as §2

[3] = Morris water maze task, acquisition training; type: in vivo, male Sprague-Dawley rats; conditions: for positive thigmotaxis (ratio of time near the wall to total trial time), day 8 / day 8 latency to find the platform / day 8 distance swum to find the platform: 70 μg/day cumulative; for day 8 latency to find the platform / day 8 distance swum to find the platform: mean ± SEM; for day 8 latency to find the platform: n = 8; for overall swim speed during the 8 days of training: no difference; for distance to find the platform, representative rat / latency to find the platform, representative rat: single rat, day 8 trial
Source text: (§3) The protocols utilized in this investigation minimized pain and discomfort, were approved by the Washington State University Institutional Animal Care and Use Committee, and conformed to the guidelines for the care and use of laboratory animals as required by the National Institutes of Health Guide for the Care and Use of Laboratory Animals (NIH Publication No. 80-23). Male Sprague-Dawley rats (300–350 g, breeding stock derived from Taconic, Germantown, NY) were adapted to a 12-hour light/dark cycle initiated at 0600 hour in the American Association for the Accreditation of Laboratory Animal Care approved vivarium at a temperature of 21 ± 1°C. The animals were housed in pairs and provided with water and food (Harlan Teklad F6 Rodent Diet, Madison, WI) ad libitum except the night prior to surgery when food was withheld. Each animal was prepared with bilateral guide cannulas targeting either the dorsal hippocampi (flat skull coordinates relative to bregma: post: −4.0 mm, lat: ±2.5 mm from midline) or lateral ventricles (post: 1.0 mm, lat: ±1.5 mm from midline) under ketamine-xylazine anesthesia (100 and 2 mg/kg, resp., intramuscularly). The guide was constructed from PE-60 tubing (Clay Adams, Parsippany, NJ) with a heat bulge that rested on top of the cranium thus serving as a stop to further penetration. The total length of the guide was 2.5 cm with a distance from the beveled tip to the heat bulge of 2.0 and 2.5 mm for the dorsal hippocampus and icv, respectively. All infusions were made using a 30-gauge stainless-steel tubing injector with a beveled end that protruded 2.0 mm beyond the tip of the PE guide cannula. The injector was attached to a 10 μL Hamilton syringe by PE-20 tubing. The animals were hand gentled for 5 minutes per day during the 7 days of recovery from surgery. Those animals prepared with dorsal hippocampus guide cannulas were randomly assigned to one of two groups (8 rats each) that received either FN-439 or artificial cerebrospinal fluid vehicle (aCSF; in mM: 124 NaCl, 3 KCl, 1.24 KH2PO2, 1.3 MgSO4, 2.0 CaCl2, 26 NaHCO3, and 10 D-glucose). Those animals prepared with icv cannulas were similarly assigned.
Our laboratory previously used a 7.2 mM stock in aCSF icv infused over 5 minutes to a total volume of 10 μL (35 μg) 10 minutes prior to behavioral testing, and again 3 hours post-testing (cumulative dose = 70 μg). Presently, we utilized a 14.4 mM stock in aCSF infused over 1 minute to a total volume of 5 μL, that is, 2.5 μL for each side (17.5 μg in 2.5 μL aCSF/min) 20 minutes prior to behavioral testing (5 trials), and again 10 minutes after testing (cumulative dose = 70 μg) each day. The protocol used for icv infusion was 35 μg in 5 μL aCSF infused over 1 minute, 20 minutes prior to testing and again 10 minutes following testing (cumulative dose = 70 μg). Behavioral testing in the Morris water maze task was conducted by an experimenter blind to the treatment of each animal.
The Morris water maze task was used to test spatial memory acquisition. This protocol has been described in detail. Briefly, each trial entailed placing the animal into the water facing the wall of the pool (1.6 m in diameter painted black, filled to a depth of 30 cm) at one of four locations (North (N), South (S), East (E), and West (W)) and tracking its swimming path and duration (Chromatrac; San Diego Instruments, San Diego, Calif) until the submerged platform was found (12 cm in diameter painted black, 2 cm below the surface). Swim speed was determined from these values. If the animal located the platform within 120 seconds it was permitted 30 seconds on the platform before the next trial commenced. […] The animal's entry point was randomized on each trial, and the location of the platform was randomly assigned to one of the four quadrants and remained fixed for each animal throughout training (5 trials/day for 8 days). At the conclusion of the 5 acquisition trials on day 8 each animal was administered one probe trial. […]

MMP-9 = conditions: 7.2 mM stock in aCSF infused over 30 min, 100 μL (350 μg); vs aCSF control; ref Reeves et al. [19]; cited from earlier work
[4] = system: LTP in the sprouting crossed temporodentate pathway; conditions: icv 350 μg, following unilateral lesions of the entorhinal cortex; ref Reeves et al. [19]; cited from earlier work
[5] = target: T1, MMP-3 (stromelysin-1) catalytic domain (Homo sapiens, UniProt P08254); test: MMP fluorescence enzyme assay, MMP-3 catalytic domain; type: biochemical
T1 construct: Catalytic domains for MMP-3 and -9 were used; purchased Biomol International LP
T1 sequence (P08254 100-272 limits assumed): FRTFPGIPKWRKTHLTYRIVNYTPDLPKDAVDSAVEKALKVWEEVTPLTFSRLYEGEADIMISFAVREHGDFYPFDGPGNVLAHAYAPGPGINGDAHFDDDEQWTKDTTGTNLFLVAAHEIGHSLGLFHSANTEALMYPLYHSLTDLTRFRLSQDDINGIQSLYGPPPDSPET
Protocol: (§4) Enzyme assays for MMP activity were conducted in black 96-well plates according to manufacturer instructions (Biomol International LP, Plymouth Meeting, Pa). Catalytic domains for MMP-3 and -9 were used with the fluorogenic peptide substrate: Mca-Pro-Leu-Gly-Leu-Dpa-Ala-Arg-NH2. Solutions were preincubated with FN-439 for 30 minutes at 37°C. Subsequently, the fluorogenic peptide substrate was added and fluorescence was measured at 10-minute intervals for one hour using a Perkin-Elmer plate reader. Slopes were derived from the linear portion of the curves and background slopes were subtracted from all samples. The slopes were normalized as percent of enzyme activity compared with activity in the absence of inhibitor. IC50 values were extrapolated using quadratic and sigmoidal curve fit programs for each sample and were averaged.

[6] = target: T2, MMP-9 (gelatinase B) catalytic domain (Homo sapiens, UniProt P14780); test: MMP fluorescence enzyme assay, MMP-9 catalytic domain; type: biochemical
T2 construct: Catalytic domains for MMP-3 and -9 were used; purchased Biomol International LP
T2 sequence (P14780 107-457 limits assumed): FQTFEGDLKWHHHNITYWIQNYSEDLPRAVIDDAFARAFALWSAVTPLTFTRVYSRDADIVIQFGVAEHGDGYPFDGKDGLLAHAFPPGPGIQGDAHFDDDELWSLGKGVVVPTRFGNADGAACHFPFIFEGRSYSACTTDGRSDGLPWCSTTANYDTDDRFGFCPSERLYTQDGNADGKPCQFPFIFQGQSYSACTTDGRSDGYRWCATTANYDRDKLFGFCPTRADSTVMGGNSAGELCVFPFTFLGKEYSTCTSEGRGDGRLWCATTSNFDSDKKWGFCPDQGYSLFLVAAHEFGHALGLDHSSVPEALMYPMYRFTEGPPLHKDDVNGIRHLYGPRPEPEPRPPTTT
Protocol: as §4

[7] = system: MMP-2 and MMP-9 gelatinase activity in the hippocampus; test: In situ zymography of hippocampal sections (DQ-gelatin-FITC); design: species or system rat; conditions: 14.4 mM, 3 h preincubation at 37°C plus 1 h with DQ-gelatin, vs PBS
Protocol: (§5) Naïve rats were euthanized by decapitation, their brains were sectioned (10 μm) using a cryostat and the sections were mounted on slides and stored at −80°C for no longer than a week. These sections were warmed to room temperature for 10 minutes and preincubated for 3 hours in either PBS (pH 7.4 control) or 14.4 mM FN-439 in PBS at 37°C. The control slides were then incubated for an additional hour with DQ-gelatin-FITC (DQ, Molecular Probes, Eugene, Ore) and the treated slides were incubated with DQ containing 14.4 mM FN-439 for 1 additional hour. Following incubation, the slides were washed in PBS, fixed with 4% paraformaldehyde in PBS, and cover slipped using prolong antifade mounting medium containing DAPI (Molecular Probes, Eugene, Ore). The slides were examined using a Zeiss Axioplan 2I microscope using epifluorescent illumination and appropriate filter sets for visualizing DQ (FITC) and DAPI (UV) fluorescence. Images were captured at 100–200X magnification using a Kodak DC290 digital camera and Photoshop software (Adobe Systems Inc, San Jose, Calif).

[8] = system: cell nuclei of hippocampal sections; test: Cell nuclei (DAPI) appearance in hippocampal sections, cellular toxicity; design: species or system rat; conditions: 14.4 mM; vs PBS
Protocol: as §5

[9] = Morris water maze task, probe trial; type: in vivo, male Sprague-Dawley rats; conditions: for time spent in the target quadrant: 70 μg/day cumulative, 120-s probe trial on day 8, mean ± SEM
Source text: as §3, with “Those animals prepared with dorsal hippocampus guide cannulas were randomly assigned to one of two groups (8 rats each) that received either FN-439 or artificial cerebrospinal fluid vehicle (aCSF; in mM: 124 NaCl, 3 KCl, 1.24 KH2PO2, 1.3 MgSO4, 2.0 CaCl2, 26 NaHCO3, and 10 D-glucose). Those animals prepared with icv cannulas were similarly assigned.” left out
The Morris water maze task was used to test spatial memory acquisition. […] Swim speed was determined from these values. […]

[10] = catalytic domain, substrate Mca-Pro-Leu-Gly-Leu-Dpa-Ala-Arg-NH2, 30 min preincubation at 37°C, fluorescence at 10-min intervals for one hour, mean ± SEM

Question: Which results are given for `CC(C)C[C@@H](NC(=O)[C@@H]1CCCN1C(=O)CNC(=O)c1ccc(N)cc1)C(=O)N[C@H](C)C(=O)NO` [FN-439, 4-Abz-Gly-Pro-D-Leu-D-Ala-OH]?
Answer: IC50 (HSF stromelysin): 150 µM; IC50 (HG gelatinase): 30 µM; acquisition of the Morris water maze task [1]: disrupted the acquisition of the Morris water maze task; late-phase of long-term potentiation (LTP) [2]: interfered with the late-phase of long-term potentiation; acquisition of the Morris water maze task (in words) ([3]; bilateral into dorsal hippocampi or icv, 8 days, vs aCSF): significantly interfered with the acquisition of the task; positive thigmotaxis (ratio of time near the wall to total trial time), day 8 ([3]; dorsal hippocampus, aCSF hippocampus 0.17 ± 0.06): 0.37 ± 0.09; day 8 latency to find the platform ([3]; dorsal hippocampus, bilateral, aCSF hippocampus 13.4 ± 1.0 s): 37.9 ± 8.4 s; day 8 distance swum to find the platform ([3]; dorsal hippocampus, bilateral, aCSF hippocampus 4.2 ± 0.5 m): 12.1 ± 2.9 m; overall swim speed during the 8 days of training ([3]; dorsal hippocampus, aCSF hippocampus 0.30 ± 0.02 m/s): 0.32 ± 0.02 m/s; latencies to find the platform on days 5–8 (in words) ([3]; hippocampus or icv, vs aCSF, P < .05): significantly longer latencies; positive thigmotaxis (ratio of time near the wall to total trial time), day 8 ([3]; icv, aCSF icv 0.14 ± 0.05): 0.45 ± 0.11; day 8 latency to find the platform ([3]; icv, aCSF icv 14.3 ± 1.9 s): 44.4 ± 10.7 s; day 8 distance swum to find the platform ([3]; icv, aCSF icv 5.8 ± 0.7 m): 12.9 ± 2.7 m; overall swim speed during the 8 days of training ([3]; icv, aCSF icv 0.31 ± 0.02 m/s): 0.31 ± 0.02 m/s; dorsal hippocampus infusion compared with icv delivery (in words) ([3]; interference with acquisition of the Morris water maze task): equivalently effective; distance to find the platform, representative rat ([3]; dorsal hippocampus, aCSF rat 5.9 m): 17.9 m; latency to find the platform, representative rat ([3]; dorsal hippocampus, aCSF rat 15 s): 38.3 s; distance to find the platform, representative rat ([3]; icv, aCSF rat 4.7 m): 14.8 m; latency to find the platform, representative rat ([3]; icv, aCSF rat 13.3 s): 43.9 s; inhibition of MMP-9 activity (MMP-9): 83.6%; LTP in the sprouting pathway [4]: lack the ability to demonstrate LTP in the sprouting pathway; IC50 [5, 10]: 16.2 ± 7.8 µM; effect upon the MMP-3 catalytic domain (in words) ([5]; in vitro fluorescence assay): maximal effect; IC50 [6, 10]: 210 ± 37.8 µM; specificity for the MMP-9 catalytic domain (in words) ([6]; in vitro fluorescence assay): good specificity; inhibition of MMP-2 and MMP-9 in the hippocampus ([7]; dentate gyrus): significantly inhibited; basal activity of MMP-9 (green fluorescence) [7]: significantly reduced; cellular toxicity (blue fluorescence of cell nuclei) [8]: no cellular toxicity; time spent in the target quadrant ([9]; dorsal hippocampus, aCSF hippocampus 40.7 ± 2.2 s): 34.3 ± 2.7 s; number of entries into the target quadrant ([9]; hippocampus or icv, probe trial day 8, groups compared incl. aCSF (F3,28 = 0.98, P > .10)): no differences; time spent in the target quadrant ([9]; icv, aCSF icv 47.1 ± 4.0 s): 28.4 ± 0.8 s
